Patent publication US9290511B2, “Thieno-pyrimidines, useful as potassium channel inhibitors” (XENTION LIMITED, priority 2011, dated 2016)

The molecules below were run against T1, Kir3.1/3.4 (Rattus norvegicus, UniProt P48548+P63251) (assay: Kir3.1/3.4 Electrophysiology Method (manual whole-cell patch clamp)). Conditions: Electrophysiology Method (TABLE 1).
T1 construct: expressed in transfected cells
T1 sequence (P63251 1-501): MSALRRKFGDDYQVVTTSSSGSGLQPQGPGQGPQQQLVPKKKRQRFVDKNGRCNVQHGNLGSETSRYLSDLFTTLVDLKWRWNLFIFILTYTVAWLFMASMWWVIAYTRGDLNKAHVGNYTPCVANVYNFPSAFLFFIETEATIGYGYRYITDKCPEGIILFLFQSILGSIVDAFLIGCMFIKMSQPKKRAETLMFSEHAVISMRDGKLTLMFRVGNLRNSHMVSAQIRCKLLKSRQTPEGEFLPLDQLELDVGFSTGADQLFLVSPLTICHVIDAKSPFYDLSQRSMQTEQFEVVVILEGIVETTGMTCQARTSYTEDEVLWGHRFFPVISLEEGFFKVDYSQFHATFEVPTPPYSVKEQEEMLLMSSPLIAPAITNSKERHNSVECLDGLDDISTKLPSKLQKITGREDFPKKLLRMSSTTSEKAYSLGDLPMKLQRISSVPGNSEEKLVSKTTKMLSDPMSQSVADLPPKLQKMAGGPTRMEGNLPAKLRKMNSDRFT
T1 sequence (P48548 1-419): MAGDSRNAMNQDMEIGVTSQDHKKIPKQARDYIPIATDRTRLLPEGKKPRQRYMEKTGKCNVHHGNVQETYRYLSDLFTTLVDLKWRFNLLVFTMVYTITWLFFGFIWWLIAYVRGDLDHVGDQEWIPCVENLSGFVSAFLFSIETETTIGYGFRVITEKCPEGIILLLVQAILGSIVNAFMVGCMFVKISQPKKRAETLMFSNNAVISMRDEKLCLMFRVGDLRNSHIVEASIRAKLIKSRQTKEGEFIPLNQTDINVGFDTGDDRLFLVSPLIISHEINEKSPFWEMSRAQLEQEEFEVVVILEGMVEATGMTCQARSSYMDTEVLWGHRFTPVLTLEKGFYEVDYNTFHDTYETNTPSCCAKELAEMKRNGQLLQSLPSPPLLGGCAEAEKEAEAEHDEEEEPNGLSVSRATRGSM
Format: cell-based
Outline: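 Manual whole-cell patch clamp on HEK293 cells stably expressing rat Kir3.1/3.4, with GTPγS in the pipette. Cells were held at −60 mV and stepped to +60 mV, then ramped to −140 mV every 10 s. Steady-state inhibition at −140 mV was measured after subtracting leak recorded in zero-K+ bath.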
In the case of `COCC1CCN(c2nc(NCCN3CCCC3)nc3scc(-c4ccccc4)c23)CC1` [Example 175], the IC50 is reported as less than 500 nM.
In the case of `COCC1CCN(c2nc(NCCC3CCCN3C)nc3scc(C4CCCCC4)c23)CC1` (stereo not drawn) [Example 177], the IC50 is reported as 500 to 3000 nM.
`c1ccc(COC2CCN(c3ncnc4scc(-c5ccccc5)c34)C2)cc1` (stereo not drawn) [Example 178, d]pyrimidine] was tested, and the IC50 was 500 to 3000 nM.
In the case of `CN(C)C1CCN(c2nc(NCCN3CCCC3)nc3scc(-c4ccccc4)c23)CC1` [Example 179], the IC50 is reported as 500 to 3000 nM.
With `c1ccc(-c2csc3ncnc(N4CCC(COc5cccnc5)CC4)c23)cc1` [Example 180] the IC50 was less than 500 nM.
`c1ccc(-c2csc3ncnc(N4CCC(N5CCCCC5)C4)c23)cc1` (stereo not drawn) [Example 181, d]pyrimidine] was tested, and the IC50 was 500 to 3000 nM.
With `COCC1CCN(c2nc(CC(=O)NCCN3CCCC3)nc3scc(-c4ccccc4)c23)CC1` [Example 182] the IC50 was less than 500 nM.
In the case of `COCC1CCN(c2nc(CC(=O)N3CCCC3)nc3scc(-c4ccccc4)c23)CC1` [Example 183, 2-[4-[4-(methoxymethyl)-1-piperidyl]-5-phenyl-thieno[2,3-d]pyrimidin-2-yl]-1-pyrrolidin-1-yl-ethanone], the IC50 is reported as 500 to 3000 nM.
`COCC1CCN(c2nc(CCN3CCCC3)nc3scc(-c4ccc(F)cc4)c23)CC1` [Example 184, 5-(4-fluorophenyl)-4-[4-(methoxymethyl)-1-piperidyl]-2-(2-pyrrolidin-1-ylethyl)thieno[2,3-d]pyrimidine] was tested, and the IC50 was less than 500 nM.
With `COCC1CCN(c2nc(N(CCO)CCN3CCCC3)nc3scc(-c4ccccc4)c23)CC1` [Example 185] the IC50 was less than 500 nM.
Work on `OCCN(CCO)CC1CCN(c2ncnc3scc(-c4ccccc4)c23)CC1` [Example 186] yielded an IC50 of 500 to 3000 nM.
Work on `CC(C)NCC1CCN(c2ncnc3scc(-c4ccccc4)c23)CC1` [Example 187] yielded an IC50 of less than 500 nM.
Molecule `CN(C)C1CCN(c2nc(N3CCC(O)C3)nc3scc(-c4ccccc4)c23)CC1` (stereo not drawn) [Example 188] has an IC50 of 500 to 3000 nM.
`OC1CCN(c2nc(NCCN3CCCC3)nc3scc(-c4ccccc4)c23)C1` (stereo not drawn) [Example 189] showed an IC50 of 500 to 3000 nM.
For `O[C@H]1CCN(CC2CCN(c3ncnc4scc(-c5ccccc5)c34)CC2)C1` [Example 190], the IC50 was less than 500 nM.
In the case of `COCC1CCN(c2nc(N3CCC(CO)CC3)nc3scc(-c4ccccc4)c23)CC1` [Example 191], the IC50 is reported as less than 500 nM.
Work on `COCCNCC1CCN(c2nc(N3CCC(COC)CC3)c3c(-c4ccccc4)csc3n2)CC1` [Example 192] yielded an IC50 of less than 500 nM.
For `COCC1CCN(c2nc(N(C)C3CCN(C)C3)nc3scc(-c4ccccc4)c23)CC1` (stereo not drawn) [Example 193], the IC50 was less than 500 nM.
Molecule `OC1(CN2CCCC2)CCN(c2ncnc3scc(-c4ccccc4)c23)CC1` [Example 195] has an IC50 of less than 500 nM.
For `CC(C)NCC1CCN(c2ncnc3scc(C4CCCCC4)c23)CC1` [Example 196], the IC50 was less than 500 nM.
In the case of `CC1CN(CC2CCN(c3ncnc4scc(C5CCCCC5)c34)CC2)CC(C)O1` (stereo not drawn) [Example 197], the IC50 is reported as less than 500 nM.
For `CC1CCN(CC2CC(c3ccccc3)N(c3ncnc4scc(-c5ccccc5)c34)C2)C1` (stereo not drawn) [Example 198], the IC50 was less than 500 nM.
`O=C(Cc1nc(N2CCCC2c2ccccc2)c2c(-c3ccc(F)cc3)csc2n1)NCCN1CCCC1` (stereo not drawn) [Example 199] was tested, and the IC50 was less than 500 nM.
`OC1CCN(CC2CCN(c3ncnc4scc(C5CCCCC5)c34)CC2)C1` (stereo not drawn) [Example 200] showed an IC50 of less than 500 nM.
`OCCN(CCO)CC1CCN(c2ncnc3scc(C4CCCCC4)c23)CC1` [Example 201] was tested, and the IC50 was less than 500 nM.
`CN1CCC(N(C)CC2CCN(c3ncnc4scc(-c5ccccc5)c34)CC2)C1` (stereo not drawn) [Example 202] gave an IC50 of less than 500 nM.
Work on `CN(CC1CCN(c2ncnc3scc(-c4ccccc4)c23)CC1)C1CCOC1` (stereo not drawn) [Example 203] yielded an IC50 of 500 to 3000 nM.
Work on `CN1CCCC1CCNCC1CCN(c2ncnc3scc(-c4ccccc4)c23)C1` (stereo not drawn) [Example 204] yielded an IC50 of less than 500 nM.
`CN1CCC(N(C)CC2CCN(c3ncnc4scc(-c5ccccc5)c34)C2)C1` (stereo not drawn) [Example 205] showed an IC50 of less than 500 nM.
`c1ccc(-c2csc3ncnc(N4CCC(CNCCN5CCCC5)CC4)c23)cc1` [Example 206] was tested, and the IC50 was less than 500 nM.
Work on `c1ccc(-c2csc3ncnc(N4CCCC(CNC5CCC5)C4)c23)cc1` (stereo not drawn) [Example 207] yielded an IC50 of 500 to 3000 nM.
Work on `CN(C)C1CCCN(CC2CCCN(c3ncnc4scc(-c5ccccc5)c34)C2)C1` (stereo not drawn) [Example 208] yielded an IC50 of less than 500 nM.
`CC1CC(CNCCC2CCCN2C)CN1c1ncnc2scc(-c3ccccc3)c12` (stereo not drawn) [Example 209] gave an IC50 of less than 500 nM.
In the case of `Cc1csc2ncnc(N3CC(CNCCC4CCCN4C)CC3c3ccccc3)c12` (stereo not drawn) [Example 210], the IC50 is reported as less than 500 nM.
`NC1CCCN(CC2CCN(c3ncnc4scc(-c5ccccc5)c34)CC2)C1` (stereo not drawn) [Example 211] showed an IC50 of less than 500 nM.
Molecule `FC(F)(F)C1CCCN(CC2CCN(c3ncnc4scc(-c5ccccc5)c34)CC2)C1` (stereo not drawn) [Example 212] has an IC50 of less than 500 nM.
Work on `O=C1CN(CC2CCN(c3ncnc4scc(-c5ccccc5)c34)CC2)CCN1` [Example 213] yielded an IC50 of 500 to 3000 nM.
Molecule `CN1CCN(CC2CCN(c3ncnc4scc(-c5ccccc5)c34)CC2)CC1` [Example 214] has an IC50 of less than 500 nM.
`CN(C)[C@H]1CCCN(CC2CCN(c3ncnc4scc(-c5ccccc5)c34)CC2)C1` [Example 215] was tested, and the IC50 was less than 500 nM.
Molecule `CN(C)[C@@H]1CCCN(CC2CCN(c3ncnc4scc(-c5ccccc5)c34)CC2)C1` [Example 216] has an IC50 of less than 500 nM.
`CN(C)CCCNCC1CCN(c2ncnc3scc(-c4ccccc4)c23)CC1` [Example 217] showed an IC50 of less than 500 nM.
Molecule `c1ccc(-c2csc3ncnc(N4CCC(CN5CCC(N6CCCCC6)C5)CC4)c23)cc1` (stereo not drawn) [Example 218] has an IC50 of less than 500 nM.
Molecule `CN1CCCC1CCNCC1CN(c2ncnc3scc(-c4ccccc4)c23)C1` (stereo not drawn) [Example 219] has an IC50 of less than 500 nM.
Molecule `Cc1sc2ncnc(N3CCC(CNCCC4CCCN4C)CC3)c2c1C` (stereo not drawn) [Example 220] has an IC50 of less than 500 nM.
`Cn1ccnc1CCNCC1CCN(c2ncnc3scc(-c4ccccc4)c23)CC1` [Example 221] gave an IC50 of less than 500 nM.
For `CN(C)C1CCN(C2CCN(c3ncnc4scc(-c5ccccc5)c34)CC2)CC1` [Example 222], the IC50 was less than 500 nM.
With `CN1CCC(NC2CCN(c3ncnc4scc(-c5ccccc5)c34)CC2)CC1` [Example 223] the IC50 was less than 500 nM.
For `CN(C)CCN(C)CC1CCN(c2nc(N3CCC(C(N)=O)C3)nc3scc(-c4ccccc4)c23)CC1` (stereo not drawn) [Example 225], the IC50 was less than 500 nM.
With `CC(=O)NC1CCN(c2nc(N3CCC(CN(C)C4CCN(C)C4)CC3)c3c(-c4ccccc4)csc3n2)C1` (stereo not drawn) [Example 226] the IC50 was less than 500 nM.
Work on `CNC(=O)C1CCCN(c2nc(N3CCC(CN(C)C4CCN(C)C4)CC3)c3c(-c4ccccc4)csc3n2)C1` (stereo not drawn) [Example 227] yielded an IC50 of less than 500 nM.
`CCN(CC)C(=O)C1CCCN(c2nc(N3CCC(CN(C)C4CCN(C)C4)CC3)c3c(-c4ccccc4)csc3n2)C1` (stereo not drawn) [Example 228] gave an IC50 of less than 500 nM.
`CN1CCC(N(C)CC2CCN(c3nc(N4CCC[C@@H]4C(N)=O)nc4scc(-c5ccccc5)c34)CC2)C1` (stereo partly drawn) [Example 229] was tested, and the IC50 was less than 500 nM.
For `CN1CCC(N(C)C2CCN(c3ncnc4scc(-c5ccccc5)c34)CC2)C1` (stereo not drawn) [Example 231], the IC50 was less than 500 nM.
For `Cc1sc2ncnc(N3CCC(CNC4CCN(C)CC4)CC3)c2c1C` [Example 232], the IC50 was less than 500 nM.
For `Cc1sc2ncnc(N3CCC(CNCCC4CCCCN4C)CC3)c2c1C` (stereo not drawn) [Example 233], the IC50 was less than 500 nM.
`Cc1sc2ncnc(N3CCC(CN4CCCC(N(C)C)C4)CC3)c2c1C` (stereo not drawn) [Example 234] was tested, and the IC50 was less than 500 nM.
With `CN(C)C1CCN(CC2CCN(c3nc(N4CCC(C(N)=O)C4)nc4scc(-c5ccccc5)c34)CC2)CC1` (stereo not drawn) [Example 235] the IC50 was less than 500 nM.
Work on `CN(C)[C@@H]1CCN(CC2CCN(c3nc(N4CCC(C(N)=O)C4)nc4scc(-c5ccccc5)c34)CC2)C1` (stereo partly drawn) [Example 236] yielded an IC50 of less than 500 nM.
`CN1CCC(N(C)CC2CCN(c3nc(N4CC(C(N)=O)C4)nc4scc(-c5ccccc5)c34)CC2)C1` (stereo not drawn) [Example 237] gave an IC50 of less than 500 nM.
Molecule `CN1CCC(N(C)CC2CCN(c3nc(N4CCCC(C(N)=O)C4)nc4scc(-c5ccccc5)c34)CC2)C1` (stereo not drawn) [Example 238] has an IC50 of less than 500 nM.
Molecule `CN1CCC(N(C)CC2CCN(c3nc(N4CCC(C(N)=O)CC4)nc4scc(-c5ccccc5)c34)CC2)C1` (stereo not drawn) [Example 239] has an IC50 of less than 500 nM.
For `Cc1sc2nc(N3CCC(C(N)=O)C3)nc(N3CCC(CNCCC4CCCCN4C)CC3)c2c1C` (stereo not drawn) [Example 240], the IC50 was less than 500 nM.
`CC(=O)N(C)C1CCN(c2nc(N3CCC(CN(C)C4CCN(C)C4)CC3)c3c(-c4ccccc4)csc3n2)CC1` (stereo not drawn) [Example 241] gave an IC50 of less than 500 nM.
For `CC(C)c1csc2ncnc(N3CCC(CNCCC4CCCN4C)CC3)c12` (stereo not drawn) [Example 242], the IC50 was less than 500 nM.
In the case of `Cc1csc2ncnc(N3CCC(CNCCC4CCCN4C)CC3)c12` (stereo not drawn) [Example 243], the IC50 is reported as less than 500 nM.
Work on `CN1CCC(N(C)CC2CCN(c3nc(CN4CCCC4=O)nc4scc(-c5ccccc5)c34)CC2)C1` (stereo not drawn) [Example 244, 1-[[4-[4-[[methyl-(1-methylpyrrolidin-3-yl)amino]methyl]-1-piperidyl]-5-phenyl-thieno[2,3-d]pyrimidin-2-yl]methyl]pyrrolidin-2-one] yielded an IC50 of less than 500 nM.
